Data taken from the PolyMetriX glass transition set.
± gives the standard deviation of the reports.

SMILES	glass transition temperature
*CC(*)C(=O)OCC(F)(F)C(F)(F)C(F)(F)F (repeat unit)	-30.00 °C
*CC(*)c1cc(Br)ccc1OC (repeat unit)	86.00 °C
*C(=O)c1ccc2c(c1)C(=O)N(c1cccc(C(=O)Nc3ccc(N4C(=O)c5ccc(*)cc5C4=O)cc3)c1)C2=O (repeat unit)	308.00 °C
*c1ccc(Oc2ccc(C3(c4ccc(Oc5ccc(N6C(=O)c7ccc(Oc8c(C)cc(C(C)(C)c9cc(C)c(Oc%10ccc%11c(c%10)C(=O)N(*)C%11=O)c(C)c9)cc8C)cc7C6=O)cc5)cc4)C4CC5CC(C4)CC3C5)cc2)cc1 (repeat unit)	282.00 °C
*C(=O)c1ccc2c(c1)C(=O)N(c1cc(C(=O)c3ccccc3)cc(N3C(=O)c4ccc(*)cc4C3=O)c1)C2=O (repeat unit)	282.00 °C
*CC(*)(C)C(=O)OC1CC(C)CC(C)(C)C1 (repeat unit)	125.00 °C
*C(=O)Nc1ccc(C(=O)Nc2ccc(NC(=O)c3ccc4[nH]c(-c5ccc(-c6nc7cc(*)ccc7[nH]6)cc5)nc4c3)cc2)cc1 (repeat unit)	300.00 °C
*C(=O)Nc1c(C)cc(Cc2cc(C)c(NC(=O)c3ccc4c(c3)C(=O)N(c3ccc(/N=N/c5ccc(F)cc5)c(N5C(=O)c6ccc(*)cc6C5=O)c3)C4=O)c(C)c2)cc1C (repeat unit)	279.00 °C
*OCCCCOC1COC2C(OC(=O)CCCCC(=O)OC3COC4C(*)COC34)COC12 (repeat unit)	114.00 °C
*/C=C/[Si](*)(c1ccccc1)c1ccccc1 (repeat unit)	-9.00 °C
*CC(*)OC(=O)CC1CCCCC1 (repeat unit)	25.00 °C
*c1cccc(P(=O)(c2ccccc2)c2cccc(-n3c(=O)c4c(-c5ccccc5)c5c(=O)n(*)c(=O)c5c(-c5ccccc5)c4c3=O)c2)c1 (repeat unit)	342.00 °C
*CC(*)C(=O)Oc1cc(C)cc(C)c1 (repeat unit)	54.00 °C
*CC(C)(C)C1C(=O)OC(=O)C1* (repeat unit)	141.00 °C
*c1ccc2c(c1)C(=O)N(c1ccc(Oc3c(C)cc(C(c4cc(C)c(Oc5ccc(N6C(=O)c7ccc(C(*)(C(F)(F)F)C(F)(F)F)cc7C6=O)cc5)c(C)c4)c4cccc5ccccc45)cc3C)cc1)C2=O (repeat unit)	308.00 °C
*c1ccc2c(c1)C(=O)N(c1cccc(C(=O)Nc3ccc(Oc4ccc(C(c5ccc(Oc6ccc(NC(=O)c7cccc(N8C(=O)c9ccc(C(*)(C(F)(F)F)C(F)(F)F)cc9C8=O)c7)cc6)cc5)(C(F)(F)F)C(F)(F)F)cc4)cc3)c1)C2=O (repeat unit)	266.00 °C
*CC(*)C(=O)OCCCSC (repeat unit)	-65.00 °C
*ON(C(F)(F)F)C(F)(F)/C(F)=C(\F)C(*)(F)F (repeat unit)	-7.00 °C
*C(=O)Nc1nc(NC(=O)c2ccc3c(c2)C(=O)N(c2ccc(Oc4cccc5c(N6C(=O)c7ccc(*)cc7C6=O)cccc45)cc2)C3=O)nc(-c2ccccc2)n1 (repeat unit)	291.00 °C
*Cc1cccc(CNC(=O)/C=C(\C)C(=O)N*)c1 (repeat unit)	135.00 °C
*c1ccc(Oc2ccc(-c3c(-c4ccccc4)nc4ccc(Oc5ccc6nc(-c7ccccc7)c(*)c(-c7ccccc7)c6c5)cc4c3-c3ccccc3)cc2)cc1 (repeat unit)	252.50 °C
*Oc1ccc(-c2ccc(NC(=O)c3cc(C(=O)Nc4ccc(-c5ccc(Oc6ccc(C(c7ccc(*)cc7)(C(F)(F)F)C(F)(F)F)cc6)c(C(F)(F)F)c5)cc4)cc(C(C)(C)C)c3)cc2)cc1C(F)(F)F (repeat unit)	251.50 °C
*c1ccc(Cc2ccc(N3C(=O)CC(Nc4ccc(Cc5ccc(NC6CC(=O)N(*)C6=O)cc5)cc4)C3=O)cc2)cc1 (repeat unit)	239.00 °C
*CC(*)C(=O)NCCC[N+](C)(C)CCCS(=O)(=O)O (repeat unit)	141.50 °C
*c1ccc2c(c1)C(=O)N(c1cc(N3C(=O)c4ccc(C(*)(C(F)(F)F)C(F)(F)F)cc4C3=O)c(O)cc1O)C2=O (repeat unit)	324.00 °C
*CC(*)C1CCC(C(C)(C)C)CC1 (repeat unit)	131.00 °C
*CC(CS(=O)(=O)CCC)O* (repeat unit)	43.00 °C
*CC(*)(F)C(=O)OCCC(F)(F)C(F)(F)C(F)(F)C(F)(F)F (repeat unit)	6.00 °C
*CCC1C(=O)N(CCCCCCCCCCCCCCCCCC)C(=O)C1* (repeat unit)	67.10 °C
*CC(=O)NCCCCCCNC(=O)COC(=O)CCCCC(=O)O* (repeat unit)	19.00 °C

More lines, now with the values ahead:

glass transition temperature	SMILES
232.00 °C	*c1cccc(C(=O)c2ccc(Oc3ccc(N4C(=O)c5ccc(Oc6ccc7c(c6)C(=O)N(*)C7=O)cc5C4=O)cc3)cc2)c1 (repeat unit)
120.00 °C	*CC(O)COc1ccc(C2(C)CC(C)(C)c3cc(O*)ccc32)cc1 (repeat unit)
272.50 °C	*c1ccc(-c2nnc(-c3cccc(-c4nnc(*)n4-c4ccccc4)c3)n2-c2ccccc2)cc1 (repeat unit)
104.00 °C	*CCCCCCCCCN1C(=O)c2ccc(-c3ccc(-c4ccc5c(c4)C(=O)N(*)C5=O)cc3)cc2C1=O (repeat unit)
70.00 °C	*Oc1ccc(OC(=O)c2ccc(OCCCCCCCCOc3ccc(C(*)=O)cc3)cc2)cc1C(=O)CC (repeat unit)
385.00 ± 20 °C	*c1ccc(Oc2ccc(-n3c(=O)c4cc5c(=O)n(*)c(=O)c5cc4c3=O)cc2)cc1 (repeat unit)
196.00 °C	*c1ccc(CCc2ccc(N3C(=O)C(=O)N(*)C3=O)cc2)cc1 (repeat unit)
32.00 °C	*CCCCCCOC(=O)Nc1ccc(C)c(NC(=O)O*)c1 (repeat unit)
213.00 °C	*C(=O)c1ccc2c(c1)C(=O)N(c1ccc(Cc3ccc(N4C(=O)c5ccc(*)cc5C4=O)c(C(C)(C)C)c3)cc1C(C)(C)C)C2=O (repeat unit)
217.00 °C	*c1ccc(Oc2c(C)cc(C(c3cccnc3)c3cc(C)c(Oc4ccc(N5C(=O)CC(Nc6cccc(NC7CC(=O)N(*)C7=O)c6)C5=O)cc4)c(C)c3)cc2C)cc1 (repeat unit)
3.90 °C	*CCCCCCCCCCCOc1ccc(CCc2ccc(O*)cc2C)cc1 (repeat unit)
136.00 °C	*Oc1ccc(C2(c3ccc(OC(=O)CCCCCCCCCC(*)=O)cc3)c3ccccc3-c3ccccc32)cc1 (repeat unit)
167.00 °C	*Oc1ccc(NC(=O)c2ccc(Oc3ccc(C(C)(C)c4cccc(C(C)(C)c5ccc(Oc6ccc(C(=O)Nc7ccc(Oc8ccc(-c9ccc(*)cc9)cc8)cc7)cc6)cc5)c4)cc3)cc2)cc1 (repeat unit)
216.00 °C	*c1ccc(Cc2ccc(N3C(=O)c4ccc(Oc5ccc6c(c5)C(=O)N(*)C6=O)cc4C3=O)c(C(C)(C)C)c2)cc1C(C)(C)C (repeat unit)
200.00 °C	*Oc1ccc(C2(c3ccc(Oc4nc(*)nc(OC)n4)cc3)CCCCC2)cc1 (repeat unit)
217.00 °C	*c1ccc(Cc2ccc(N3C(=O)c4ccc(Oc5ccc(C(C)(C)c6ccc(Oc7ccc8c(c7)C(=O)N(*)C8=O)cc6)cc5)cc4C3=O)cc2)cc1 (repeat unit)
256.00 °C	*c1ccc(C(c2ccc(N3C(=O)c4ccc(Oc5ccc6ccc(Oc7ccc8c(c7)C(=O)N(*)C8=O)cc6c5)cc4C3=O)cc2)(C(F)(F)F)C(F)(F)F)cc1 (repeat unit)

glass transition temperature	SMILES
143.00 °C	*CC(*)(C)C(=O)Oc1ccc(/C=C/c2ccccc2)cc1 (repeat unit)
152.42 ± 6.3 °C	*Oc1ccc(C(C)(C)c2ccc(OC(*)=O)cc2)cc1 (repeat unit) [Poly(bisphenol A carbonate)]
52.00 °C	*O[Si](*)(C)CCCCCOc1ccc(/C=C/c2ccc(OC)cc2)cc1 (repeat unit)
266.00 °C	*C(=O)Nc1ccc(Oc2ccccc2-c2ccccc2Oc2ccc(NC(=O)c3ccc4c(c3)C(=O)N(c3ccc(C)c(N5C(=O)c6ccc(*)cc6C5=O)c3)C4=O)cc2)cc1 (repeat unit)
171.00 °C	*Oc1ccc(C(C)(C)c2ccc(Oc3ccc(C(=O)c4ccc(C(=O)c5ccc(*)c(C(F)(F)F)c5)cc4)cc3C(F)(F)F)cc2)cc1 (repeat unit)
68.10 °C	*Oc1ccc(C(C)(C)c2ccc(OC(=O)OCCCOC(*)=O)cc2)cc1 (repeat unit)
258.00 °C	*C(=O)c1ccc2c(c1)C(=O)N(c1cccc(Cc3ccccc3N3C(=O)c4ccc(*)cc4C3=O)c1)C2=O (repeat unit)
26.00 °C	*O[Si](C)(C)c1ccc2ccc([Si](*)(C)C)cc2c1 (repeat unit)
100.50 °C	*C(=O)OCCCCOC(=O)c1ccc(N2C(=O)c3ccc(*)cc3C2=O)cc1 (repeat unit)
236.1 °C	*Nc1ccc(C(=O)c2ccc(Nc3ccc4c(c3)c3cc(*)ccc3n4CC(CC)CCCC)cc2)cc1 (repeat unit)
40.00 °C	*CC(*)C(=O)OCCCCOC(=O)c1ccc(OC(=O)c2ccc(C#N)cc2)cc1 (repeat unit)
16.00 °C	*CCOCCOCCOc1ccc(/C=C(\C)c2ccc(O*)cc2)cc1 (repeat unit)
278.00 °C	*C(=O)Nc1ccc(C2(c3ccc(NC(=O)c4ccc5c(c4)C(=O)N(c4ccc(Oc6cccc(Oc7ccc(N8C(=O)c9ccc(*)cc9C8=O)cc7)c6)cc4)C5=O)cc3)c3ccccc3-c3ccccc32)cc1 (repeat unit)
182.00 °C	*Oc1ccc(C(c2ccccc2)c2ccc(OC(*)=O)cc2C)c(C)c1 (repeat unit)
-93.00 °C	*O[Si](C)(C)O[Si](C)(C)O[Si](C)(C)O[Si](C)(C)O[Si](C)(C)O[Si](C)(C)OC1=C(*)c2cccc3cccc1c23 (repeat unit)
175.00 °C	*Oc1cccc(S(=O)(=O)c2ccc(*)cc2)c1 (repeat unit)
